The values that follow come from ChEMBL document CHEMBL1201862, “PubChem BioAssay data set” (2004).

What all share (experiment): inhibition of tumour cell growth, NCI panel, 48 h
For test [1], the system named is 786-0.
Test [2] relates to CAKI-1.
Test [3] relates to CCRF-CEM.
The subject of test [4] is HCC 2998.
Test [5] has as its system HOP-62.
The subject of test [6] is HT-29.
Test [7] relates to IGROV-1.
For test [8], the system named is MDA-MB-435.
The subject of test [9] is MDA-N.
Test [10] relates to MOLT-4.
Test [11] has as its system NCI-H23.
The subject of test [12] is OVCAR-4.
For test [13], the system named is SF-295.
Test [14] relates to SK-OV-3.
Test [15] deals with TK-10.
Test [16] relates to UO-31.
For test [17], the system named is OVCAR-8.
For test [18], the system named is NCI-H522.

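These data come from cells grown in 96-well plates and exposed to compound for 48 hours at five concentrations. GI50 is the concentration that inhibits growth by half.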 Calls of active or inactive are those of the source. Rule as the data show it: active = GI50 up to about 1.1 µM and inactive = higher.

In the case of `COC1OC(COC(=O)NCCCCC(=O)C(F)(F)F)C(O)C(O)C1O` (configuration not stated), the GI50 in test [1], in [2], in test [3], in test [4], in test [5] and in test [6] was > 100 µM (inactive) each time. For the same molecule, the GI50 in [7], in [8], in test [9], in test [10], in test [11] and in test [12] was > 100 µM (inactive) each time. Further, the GI50 in test [13], in test [14], in test [15] and in [16] was > 100 µM (inactive) throughout.

Consider `c1ccc(C2(c3cc4ccccc4[nH]3)OCCO2)nc1`, for which the GI50 in [1], in [2], in test [3], in [4], in test [5] and in [6] was > 100 µM (inactive) in each case. Besides, the GI50 in test [7], in test [8], in test [11], in test [12], in test [17] and in test [13] was > 100 µM (inactive) each time. Moreover, the GI50 in test [14], in [15] and in test [16] was > 100 µM (inactive) each time.

On to `Cc1cn(C2OC(CO[Si](C)(C)C(C)(C)C)/C(=C\C#N)C2O[Si](C)(C)C(C)(C)C)c(=O)[nH]c1=O` (configuration not stated), for which the GI50 in test [1] is 58.1 µM (inactive); in test [2], > 100 µM (inactive); in [3], 9.51 µM (inactive); in test [5] it was 63.7 µM (inactive); in test [6] it was 40.7 µM (inactive); in [8] it was 56.1 µM (inactive). Also, the GI50 in [9] was > 100 µM (inactive); in test [10], > 100 µM (inactive); in test [11], > 100 µM (inactive); in test [12], 58.3 µM (inactive); in test [13] it was 6.67 µM (inactive); in test [14], > 100 µM (inactive). For the same molecule, the GI50 in test [15] and in test [16] was > 100 µM (inactive) each time.

Consider `O=C(CBr)N1CCC2(CC1)SSC1(CCN(C(=O)CBr)CC1)S2`, for which the GI50 in [1] is 0.614 µM (active); in test [3] it was 0.15 µM (active); in test [5] it was 1.9 µM (inactive); in [6], 1.81 µM (inactive); in test [8], 2.12 µM (inactive); in test [9], 1.31 µM (inactive). For the same molecule, the GI50 was 0.159 µM (active) in test [10]; 1.6 µM (inactive) in test [11]; 2.02 µM (inactive) in test [12]; 1.93 µM (inactive) in [17]; 1.94 µM (inactive) in [13]; 1.41 µM (inactive) in test [14]. Moreover, the GI50 in test [16] is 0.593 µM (active).

Turning to `Cc1cccnc1N/C=C1\C(=O)NC(=O)N(C)C1=O`, the GI50 in test [1] is > 100 µM (inactive); in test [2], > 100 µM (inactive); in [5] it was > 100 µM (inactive); in [6], > 100 µM (inactive); in [7], 64.1 µM (inactive); in [8], > 100 µM (inactive). The GI50 in [9] is > 100 µM (inactive); in test [10], > 100 µM (inactive); in test [11], 49.7 µM (inactive); in test [18] it was 1.69 µM (inactive); in test [12] it was > 100 µM (inactive); in test [17], > 100 µM (inactive). In addition, the GI50 in test [13], in [14], in test [15] and in [16] was > 100 µM (inactive) throughout.

Take `COc1cc(C=O)cc(/C=N/n2c3ccccc3c3ccccc32)c1O`: the GI50 is 11.9 µM (inactive) in [1]; 31.8 µM (inactive) in test [2]; 4.09 µM (inactive) in [3]; 19.3 µM (inactive) in [4]; 30.3 µM (inactive) in test [5]; 35.7 µM (inactive) in test [6]. The GI50 was 4.05 µM (inactive) in test [8]; 16.9 µM (inactive) in [10]; 39.6 µM (inactive) in test [11]; 33.6 µM (inactive) in test [18]; 74 µM (inactive) in test [12]; 8.09 µM (inactive) in [17]. For the same molecule, the GI50 is 3.17 µM (inactive) in test [13], 6.76 µM (inactive) in [14], 36.9 µM (inactive) in test [15] and 8.18 µM (inactive) in test [16].

For the molecule `CC(=O)Oc1ccc2cc(Oc3ccc(Cl)cc3)c(=O)oc2c1`, the GI50 in test [1] is 36.1 µM (inactive); in test [2] it was 53 µM (inactive); in [4] it was 35.8 µM (inactive); in [5], 58.2 µM (inactive); in [6] it was 63.7 µM (inactive); in [7], 30.1 µM (inactive). The GI50 in test [9] was 25.6 µM (inactive); in test [11], 41.4 µM (inactive); in test [18] it was 22.3 µM (inactive); in test [12], 58.2 µM (inactive); in test [17], 19.1 µM (inactive); in test [13], 33.6 µM (inactive). Further, the GI50 was > 100 µM (inactive) in test [15] and 30.6 µM (inactive) in test [16].

For the molecule `Cc1ccc(C2SC(=N)Nc3c2c(C)nn3C(=O)c2ccccc2O)cc1` (configuration not stated), the GI50 was > 10 µM (inactive) in [1]; > 10 µM (inactive) in test [2]; > 10 µM (inactive) in test [3]; > 10 µM (inactive) in test [5]; > 10 µM (inactive) in [6]; 2.81 µM (inactive) in test [7]. For the same molecule, the GI50 in test [8] was 3.78 µM (inactive); in test [9], 7.14 µM (inactive); in test [10] it was 7.43 µM (inactive); in test [11] it was 7 µM (inactive); in test [12] it was > 10 µM (inactive); in [17], > 10 µM (inactive). Moreover, the GI50 in test [14] was 3.3 µM (inactive); in test [15], > 10 µM (inactive); in [16] it was 6.87 µM (inactive).

Turning to `CCN(CC)c1ccc2cc(-c3csc(C)n3)c(=O)oc2c1`, the GI50 in test [1] was 39.2 µM (inactive); in test [2], > 100 µM (inactive); in test [3] it was > 100 µM (inactive); in [4] it was 58.5 µM (inactive); in test [5] it was 30.6 µM (inactive); in test [6], 5.75 µM (inactive). Moreover, the GI50 in test [7] is 45.3 µM (inactive); in test [8], 42.9 µM (inactive); in test [9] it was 0.719 µM (active); in [10] it was > 100 µM (inactive); in [12], 34.6 µM (inactive); in test [13] it was 47 µM (inactive). Besides, the figures for the GI50 in test [14], in test [15] and in test [16] were > 100 µM (inactive), 54.7 µM (inactive) and > 100 µM (inactive), respectively.

For the molecule `CC(=O)Nc1ccc2c(c1)C(=O)c1cccc(F)c1-2`, the GI50 was 71.6 µM (inactive) in [1]; 41.1 µM (inactive) in test [2]; 38.6 µM (inactive) in test [3]; 51.3 µM (inactive) in test [5]; 35.2 µM (inactive) in test [6]; 20.1 µM (inactive) in test [7]. In addition, the GI50 in test [8] is > 100 µM (inactive); in test [10], 25.3 µM (inactive); in [11], 43.9 µM (inactive); in test [18], 36.5 µM (inactive); in test [12], 50.4 µM (inactive); in test [17], 58.2 µM (inactive). The GI50 in [13] was 54.2 µM (inactive); in test [14], > 100 µM (inactive); in test [15], 55.6 µM (inactive); in [16], 21.2 µM (inactive).

For the molecule `COc1cc(/C=C2\N=C(c3ccccc3)N(c3nc4cc(C)c(C)cc4s3)C2=O)ccc1O`, the GI50 in test [1] is 43 µM (inactive); in [2] it was 36.6 µM (inactive); in test [3] it was 20.5 µM (inactive); in [4], 27 µM (inactive); in test [5] it was 74.1 µM (inactive); in test [6], 31.1 µM (inactive). In addition, the GI50 is 21.4 µM (inactive) in test [7]; 12.6 µM (inactive) in test [8]; 15.2 µM (inactive) in test [9]; 2.75 µM (inactive) in test [10]; 20.7 µM (inactive) in [12]; 47.4 µM (inactive) in test [17]. The GI50 in test [13] was 66.8 µM (inactive); in test [14], > 100 µM (inactive); in test [15], 79.4 µM (inactive); in test [16] it was 40.3 µM (inactive).

Take `Cc1nn(C(=O)c2ccccc2O)c2c1C(c1ccc3ccccc3c1O)SC(=N)N2` (configuration not stated): the GI50 was 6.47 µM (inactive) in [1]; 3.52 µM (inactive) in test [2]; 3.76 µM (inactive) in test [3]; 4.26 µM (inactive) in test [5]; 9.55 µM (inactive) in test [6]; 3.61 µM (inactive) in test [7]. Also, the GI50 in test [8] was 5.93 µM (inactive); in test [9], 3.44 µM (inactive); in test [10], 2.98 µM (inactive); in test [11] it was 4.97 µM (inactive); in test [12] it was 5.13 µM (inactive); in [17], 5.11 µM (inactive). The GI50 is > 10 µM (inactive) in [13], 6.3 µM (inactive) in test [14], 8.75 µM (inactive) in [15] and 4.2 µM (inactive) in test [16].

`CC(=O)Nc1ccc(NNc2cc(=O)n(C)c(=O)[nH]2)cc1`: the GI50 is 2.71 µM (inactive) in test [1]; > 10 µM (inactive) in [3]; 11.4 µM (inactive) in test [4]; 15.1 µM (inactive) in test [5]; 2.02 µM (inactive) in test [6]; 14 µM (inactive) in test [7]. The GI50 in test [8] was 10.3 µM (inactive); in test [9], 11 µM (inactive); in test [10] it was 34.8 µM (inactive); in [11], 14.7 µM (inactive); in [12], 10.2 µM (inactive); in test [17], 15.9 µM (inactive). Moreover, the GI50 in test [13] is 15.8 µM (inactive); in test [15], 23.2 µM (inactive); in test [16], 17.2 µM (inactive).
